In US20130171141A1, “COMBINATION OF HDAC INHIBITORS WITH THROMBOCYTOPENIA DRUGS” (NOVARTIS AG, priority 2010, published 2013):

Key:
[1] = test system: murine platelet lifespan; experiment: Platelet clearance analysis (biotinylated platelet lifespan) in HDACi-treated mice; conditions: for decrease in labelled (biotinylated) platelets in peripheral blood over time: IV NHS-biotin, seven days, 10 mg/kg panobinostat IP or 1 mg/kg romidepsin IP daily, compared to vehicle
Experimental: Mice were twice injected intravenously (IV), one hour apart, with 600 μg NHS-biotin in phospho-buffered saline (PBS) and 10% dimethyl sulphoxide (DMSO). At various time points peripheral blood was isolated from the tail, and 1 μl blood was washed twice in PBS and 10 mM EDTA. Platelets were stained with phycoerythrin-conjugated rat anti-CD41 and allophycocyanin-conjugated streptavidin (APC-A) for 30 minutes on ice. Samples were washed again and incubated with 0.125 μg/ml thiazole orange, which has increased uptake in high RNA-containing platelets, staining younger, reticulated platelet fraction, for 90 minutes. Flow cytometry was then performed on an LSR flow cytometer. By plotting the number of biotinylated platelets against time, an estimate of the life span was obtained by linear extrapolation, while the number of thiazole orange-positive, non-biotinylated platelets provided an estimate of new platelet production.
The mice were then treated for seven days with either 10 mg/kg panobinostat IP or 1 mg/kg romidepsin IP daily or vehicle, and the number of biotinylated platelets in peripheral blood was determined. […] ABT-737 is a BH3 mimetic that inhibits Bcl-xL, which causes direct platelet apoptosis. […] Megakaryocytes are the haematopoietic cells responsible for the production of platelets which reside in the bone marrow.

[2] = test system: reticulated platelets; experiment: Reticulated platelet staining (thiazole orange), new platelet production; type: in vivo, C57BL/6 mice; conditions: for absolute number of reticulated (new) platelets: 6 day experiment, thiazole orange, FIG. 2
Experimental: To assess platelet production, C57BL/6 mice were treated with panobinostat, carboplatin and ABT-737, and the RNA-containing platelet fraction (i.e. new platelets) was determined by staining with thiazole orange (FIG. 2). The number of new, reticulated platelets in vehicle-treated mice remained relatively constant over the 6 day time span of the experiment.

[3] = test system: platelet count; experiment: Compound III with eltrombopag in Hodgkin's lymphoma patient; type: in vivo, human; conditions: recommended dosage of compound III, Example 1
Experimental: (§1) A patient having Hodgkin's lymphoma is given the recommend dosage of compound III. […] A patient having Hodgkin's lymphoma is tested for thrombocytopenia. Patient is found to have a low blood cell count or a biomarker for thrombocytopenia. Patient is put on a regimen of compound III together with eltrombopag.

[4] = test system: thrombocytopenia (TCP); experiment: HDACi-induced thrombocytopenia and co-treatment with TPO-mimetic; type: in vivo; conditions: wild-type C57BL/6 mice, 10 mg/kg IP daily, 12-day period
Experimental: To determine whether administration of a TPO-mimetic could ameliorate TCP, some of the panobinostat-treated mice were subjected to co-treatment with 20 μg/kg AMP-4 at day 0 and day 6 (FIG. 3).
To determine whether administration of a TPO-mimetic could ameliorate TCP, some of the romidepsin-treated mice were subjected to co-treatment with 20 μg/kg AMP-4 at day 0 and day 6 (FIG. 4).

[5] = test system: platelet count; experiment: Compound III with eltrombopag in multiple myeloma patient; type: in vivo, human; conditions: recommended dosage of compound III, Example 3
Experimental: as §1, with “patient having multiple myeloma patient is given” for “patient having Hodgkin's lymphoma is given”

| reduction in platelet number ([1]; biotinylated platelets, two hours following administration) [%] | decrease in labelled (biotinylated) platelets in peripheral blood over time ([1]; mice, FIG. 1) | absolute number of reticulated (new) platelets ([2]; C57BL/6 mice) | patient's platelet count [3] | thrombocytopenia (TCP) [4] | platelet count versus baseline ([2]; C57BL/6 mice, throughout the course of the experiment) | patient's platelet count [5] | Compound | platelet life span ([1]; mice, FIG. 1) | absolute reticulated platelet numbers ([2]; 6 days after the commencement of treatment) | new platelet production ([2]; first 4 days of treatment) |
| --- | --- | --- | --- | --- | --- | --- | --- | --- | --- | --- |
| 50 | rapidly reduced | substantial increase | – | – | – | – | CN(C)CC[C@H](CSc1ccccc1)Nc1ccc(S(=O)(=O)NC(=O)c2ccc(N3CCN(Cc4ccccc4-c4ccc(Cl)cc4)CC3)cc2)cc1[N+](=O)[O-] [ABT-737] | – | – | – |
| – | – | – | – | – | – | – | N.N.O=C([O-])C1(C(=O)[O-])CCC1.[Pt+2] [carboplatin] | did not affect | significantly reduced | did not significantly affect |
| – | remained similar to vehicle-treated mice | dramatic decrease | begins to lower | sustained TCP | remained well below baseline levels | begins to lower | Cc1[nH]c2ccccc2c1CCNCc1ccc(/C=C/C(=O)NO)cc1 [panobinostat, N-hydroxy-3-[4-[[[2-(2-methyl-1H-indol-3-yl)-ethyl]-amino]methyl]phenyl]-2E-2-propenamide] | – | – | – |
| – | remained similar to vehicle-treated mice | – | – | sustained TCP | – | – | C/C=C1\NC(=O)[C@H]2CSSCC/C=C/[C@H](CC(=O)N[C@H](C(C)C)C(=O)N2)OC(=O)[C@H](C(C)C)NC1=O [romidepsin] | – | – | – |
